Reference: patent publication US8597875B2, “Method for diagnosing liver toxicity with sex specific biomarkers” (BASF SE, priority 2008, dated 2013)

Assays:
male rats = test: Plasma metabolite profiling (GC-MS/LC-MS) for liver toxicity markers, 28-day gavage study, male rats; assay type: in vivo, rat; conditions: male rats
Protocol: (§1) A group of each 5 male and female rats was dosed once daily with the indicated compounds (see tables below) at 10 and 100 mg/kg body weight per gavage over 28 days. Additional groups of each 5 male and female animals served as controls. Before starting the treatment period, animals, which were 62-64 days old when supplied, were acclimatized to the housing and environmental conditions for 7 days. All animals of the animal population were kept under the same constant temperature (20-24±3° C.) and the same constant humidity (30-70%). Each animal of the animal population was kept in a separate cage. The animals of the animal population are fed ad libitum. The food to be used was be essentially free of chemical or microbial contaminants. Drinking water was also offered ad libitum. Accordingly, the water was be free of chemical and microbial contaminants as laid down in the European Drinking Water Directive 98/83/EG. The illumination period was 12 hours light followed by 12 hours darkness (12 hours light, from 6:00 to 18:00, and 12 hours darkness, from 18:00 to 6:00).
(§2) In the morning of day 7, 14, and 28, blood was taken from the retroorbital venous plexus from fasted anaesthetized animals. From each animal, 1 ml of blood was collected with EDTA as anticoagulant. The samples were be centrifuged for generation of plasma. All plasma samples were covered with a N2 atmosphere and then stored at −80° C. until analysis.
(§3) For mass spectrometry-based metabolite profiling analyses plasma samples were extracted and a polar and a non-polar fraction was obtained. For GC-MS analysis, the non-polar fraction was treated with methanol under acidic conditions to yield the fatty acid methyl esters. Both fractions were further derivatised with O-methyl-hydroxyamine hydrochloride and pyridine to convert Oxo-groups to O-methyloximes and subsequently with a silylating agent before analysis. In LC-MS analysis, both fractions were reconstituted in appropriate solvent mixtures. HPLC was performed by gradient elution on reversed phase separation columns. For mass spectrometric detection metanomics proprietary technology was applied which allows target and high sensitivity MRM (Multiple Reaction Monitoring) profiling in parallel to a full screen analysis.
(§4) Following comprehensive analytical validation steps, the data for each analyte were normalized against data from pool samples. These samples were run in parallel through the whole process to account for process variability. The significance of treatment group values specific for sex, dose group and metabolite was determined by comparing means of the treated groups to the means of the respective untreated control groups using WELCH-test. Normalized treatment group values and their significance were fed into a database for further statistics and data mining processes.
(§5) The changes of the group of plasma metabolites being indicative for liver toxicity after treatment of the rats are shown in the following tables: […]

female rats = test: Plasma metabolite profiling (GC-MS/LC-MS) for liver toxicity markers, 28-day gavage study, female rats; assay type: in vivo, rat; conditions: female rats, fh7 (day 7)
Protocol: as §1, §2, §3, §4, §5

## C1CCOC1 [Tetrahydrofuran]
Male rats; mh7 (day 7)
  1,2-Dioleoyl-sn-glycero-3-phosphatidyl-L-serine, change of plasma metabolite: 1.70
  4-Hydroxysphingosine, change of plasma metabolite: 2.67
  Arachidonic acid (C20:cis-[5,8,11,14]4), change of plasma metabolite: 1.71
  Behenic acid (C22:0), change of plasma metabolite: 1.35
  Ceramide (d18:1, C24:0), change of plasma metabolite: 1.37
  Ceramide (d18:1, C24:1), change of plasma metabolite: 1.53
  Cholesterol, change of plasma metabolite: 1.81
  Docosahexaenoic acid (C22:cis[4,7,10,13,16,19]6), change of plasma metabolite: 2.52
  Eicosatrienoic acid, change of plasma metabolite: 3.13
  Glycerolphosphate, lipid fraction, change of plasma metabolite: 1.94
  Heptadecanoic acid (C17:0), change of plasma metabolite: 1.52
  Lignoceric acid (C24:0), change of plasma metabolite: 1.62
  Linoleic acid (C18:cis[9,12]2), change of plasma metabolite: 1.52
  Nervonic acid (C24:1), change of plasma metabolite: 1.88
  Palmitic acid (C16:0), change of plasma metabolite: 1.48
  Phosphatidylcholine (C18:0/C22:6), change of plasma metabolite: 1.83
  Phosphatidylcholine (C18:2, C20:4), change of plasma metabolite: 1.52
  Sphingomyelin (d18:1, C16:0), change of plasma metabolite: 1.46
  Tricosanoic acid (C23:0), change of plasma metabolite: 1.51
  alpha-Tocopherol, change of plasma metabolite: 2.61
  myo-Inositol-2-monophosphate, lipid fraction, change of plasma metabolite: 1.70
Male rats; mh14 (day 14)
  1,2-Dioleoyl-sn-glycero-3-phosphatidyl-L-serine, change of plasma metabolite: 1.81
  4-Hydroxysphingosine, change of plasma metabolite: 2.56
  Arachidonic acid (C20:cis-[5,8,11,14]4), change of plasma metabolite: 1.64
  Behenic acid (C22:0), change of plasma metabolite: 1.77
  Ceramide (d18:1, C24:0), change of plasma metabolite: 1.55
  Ceramide (d18:1, C24:1), change of plasma metabolite: 1.48
  Cholesterol, change of plasma metabolite: 1.98
  Docosahexaenoic acid (C22:cis[4,7,10,13,16,19]6), change of plasma metabolite: 2.37
  Eicosatrienoic acid, change of plasma metabolite: 3.76
  Glycerolphosphate, lipid fraction, change of plasma metabolite: 1.93
  Heptadecanoic acid (C17:0), change of plasma metabolite: 1.54
  Lignoceric acid (C24:0), change of plasma metabolite: 1.71
  Linoleic acid (C18:cis[9,12]2), change of plasma metabolite: 1.46
  Nervonic acid (C24:1), change of plasma metabolite: 1.87
  Palmitic acid (C16:0), change of plasma metabolite: 1.49
  Phosphatidylcholine (C18:0/C22:6), change of plasma metabolite: 1.71
  Phosphatidylcholine (C18:2, C20:4), change of plasma metabolite: 1.46
  Sphingomyelin (d18:1, C16:0), change of plasma metabolite: 1.45
  Tricosanoic acid (C23:0), change of plasma metabolite: 1.74
  alpha-Tocopherol, change of plasma metabolite: 2.23
  myo-Inositol-2-monophosphate, lipid fraction, change of plasma metabolite: 2.40
Male rats; mh28 (day 28)
  1,2-Dioleoyl-sn-glycero-3-phosphatidyl-L-serine, change of plasma metabolite: 1.84
  4-Hydroxysphingosine, change of plasma metabolite: 2.64
  Arachidonic acid (C20:cis-[5,8,11,14]4), change of plasma metabolite: 1.76
  Behenic acid (C22:0), change of plasma metabolite: 1.65
  Ceramide (d18:1, C24:0), change of plasma metabolite: 1.40
  Ceramide (d18:1, C24:1), change of plasma metabolite: 1.18
  Cholesterol, change of plasma metabolite: 2.03
  Docosahexaenoic acid (C22:cis[4,7,10,13,16,19]6), change of plasma metabolite: 2.02
  Eicosatrienoic acid, change of plasma metabolite: 3.77
  Glycerolphosphate, lipid fraction, change of plasma metabolite: 2.15
  Heptadecanoic acid (C17:0), change of plasma metabolite: 1.51
  Lignoceric acid (C24:0), change of plasma metabolite: 1.57
  Linoleic acid (C18:cis[9,12]2), change of plasma metabolite: 1.50
  Nervonic acid (C24:1), change of plasma metabolite: 1.97
  Palmitic acid (C16:0), change of plasma metabolite: 1.36
  Phosphatidylcholine (C18:0/C22:6), change of plasma metabolite: 1.32
  Phosphatidylcholine (C18:2, C20:4), change of plasma metabolite: 1.18
  Sphingomyelin (d18:1, C16:0), change of plasma metabolite: 1.39
  Tricosanoic acid (C23:0), change of plasma metabolite: 1.55
  alpha-Tocopherol, change of plasma metabolite: 2.15
  myo-Inositol-2-monophosphate, lipid fraction, change of plasma metabolite: 2.70
Female rats
  1,2-Dioleoyl-sn-glycero-3-phosphatidyl-L-serine, change of plasma metabolite: 1.49
  4-Hydroxysphinganine, change of plasma metabolite: 1.98
  Arachidonic acid (C20:cis-[5,8,11,14]4), change of plasma metabolite: 1.85
  Behenic acid (C22:0), change of plasma metabolite: 1.52
  Ceramide (d18:1, C24:0), change of plasma metabolite: 1.85
  Cholesterol, change of plasma metabolite: 2.18
  Docosahexaenoic acid (C22:cis[4,7,10,13,16,19]6), change of plasma metabolite: 3.22
  Glycerol, lipid fraction, change of plasma metabolite: 1.89
  Glycerolphosphate, lipid fraction, change of plasma metabolite: 1.77
  Heptadecanoic acid (C17:0), change of plasma metabolite: 1.72
  ID28x493, change of plasma metabolite: 2.44
  Lignoceric acid (C24:0), change of plasma metabolite: 1.59
  Linoleic acid (C18:cis[9,12]2), change of plasma metabolite: 2.43
  Nervonic acid (C24:1), change of plasma metabolite: 1.54
  Palmitic acid (C16:0), change of plasma metabolite: 1.97
  Phosphate, lipid (Phospholipids), change of plasma metabolite: 1.37
  Stearic acid (C18:0), change of plasma metabolite: 1.60
  TAG No 1, change of plasma metabolite: 1.66
  Threonic acid, change of plasma metabolite: 1.92
  Tricosanoic acid (C23:0), change of plasma metabolite: 1.80
